Source: PMC2533715, “Suppressive Effects of Selected Food Phytochemicals on CD74 Expression in NCI-N87 Gastric Carcinoma Cells” (Journal of Clinical Biochemistry and Nutrition, 2008)

Experiments:
CD74 = assay: Cell-based ELISA for constitutive CD74 expression; parameters: species or system human; settings: 48 h, NCI-N87 cells; for IR (%) inhibition rate of CD74 expression: mean ± average deviation; for IC50: mean of duplicate experiments, unit printed in b25 only, read-out: IC50 (50% inhibitory concentration) for constitutive CD74 expression
[1] = test system: NCI-N87 gastric carcinoma cells; assay: Cell viability (MTT); settings: NCI-N87 cells, 48 h
Cell viability (MTT) = settings: human
H. pylori = settings: cited from earlier work
in vitro = settings: human
[2] = test system: cytochrome P450 (CYP) 3A4; parameters: method as in PMID 9548795; settings: cited from earlier work
MCF-7 cells = test system: MCF-7 cells; parameters: method as in PMID 12641443; settings: induced by benzo[a]pyrene and 7,12-dimethylbenz[a]anthracene; cited from earlier work
CYP1A1 = test system: CYP1A1; parameters: method as in PMID 15670584; settings: cited from earlier work
leukemia differentiation = test system: leukemia differentiation; parameters: method as in PMID 10552768; settings: cited from earlier work
NO generation = test system: NO generation; parameters: method as in PMID 10563895; settings: cited from earlier work
skin tumors = test system: skin tumors; parameters: method as in PMID 9276625; settings: mice; cited from earlier work
NF-κB [3] = test system: NF-κB; parameters: method as in PMID 12106602; settings: MKN45 gastric carcinoma cells co-cultured with H. pylori; cited from earlier work
NF-κB [4] = test system: NF-κB; parameters: method as in PMID 15589482, PMID 16317159, PMID 9521814, PMID 17420607; settings: several cell lines; cited from earlier work
[5] = test system: H. pylori-infected human gastric mucosal cells; parameters: method as in PMID 17028789; settings: cited from earlier work
[6] = NCI-N87 gastric carcinoma cells

## Oc1cc(O)c2c(c1)O[C@@H](c1ccc(O)c(O)c1)[C@H](O)C2 [(−)-Catechin]
CD74; 4 µM
  IR (%) inhibition rate of CD74 expression: −6.4 ± 2.0%
CD74; 20 µM
  IR (%) inhibition rate of CD74 expression: 40 ± 2.1%
CD74; 20 µM, listed as (−)-catechin
  IR (%) inhibition rate of CD74 expression: 40–65%
CD74; 100 µM
  IR (%) inhibition rate of CD74 expression: 65 ± 0.8%
CD74
  Suppression of CD74 expression (in words): suppressive only at a high concentration
  IC50: 69.2 µM
[1]
  Cytotoxicity (in words): Marginal cytotoxicity
Cell viability (MTT); [6]
  CC50 at 48 h: > 100 µM
  viability at 48 h, 4 µM: 97 ± 2.5%
  viability at 48 h, 20 µM: 97 ± 3.3%
  viability at 48 h, 100 µM: 89 ± 5.9%

## O=C1O[C@H]([C@@H](O)CO)C(O)=C1O [Ascorbic acid]
CD74; 4 µM
  IR (%) inhibition rate of CD74 expression: –12 ± 3.5%
CD74; 20 µM
  IR (%) inhibition rate of CD74 expression: 5.4 ± 3.8%
CD74; 100 µM
  IR (%) inhibition rate of CD74 expression: 6.8 ± 1.8%
CD74; 100 µM, listed as ascorbic acid
  IR (%) inhibition rate of CD74 expression: did not suppress CD74
CD74
  IC50: > 100 µM
Cell viability (MTT)
  CC50 at 48 h: > 100 µM
Cell viability (MTT); [6]
  viability at 48 h, 4 µM: 97 ± 1.7%
  viability at 48 h, 20 µM: 94 ± 0.3%
  viability at 48 h, 100 µM: 86 ± 5.8%
H. pylori; Mongolian gerbils
  H. pylori colonization and subsequent inflammation: reduced

## CC(C)=CCC/C(C)=C/COc1ccc2ccc(=O)oc2c1 [Auraptene]
CD74; 4 µM
  IR (%) inhibition rate of CD74 expression: 2.4 ± 2.0%
CD74; 20 µM
  IR (%) inhibition rate of CD74 expression: 50 ± 0.4%
CD74; 20 µM, listed as auraptene
  IR (%) inhibition rate of CD74 expression: 40–65%
CD74
  Suppression of CD74 expression (in words): significant activity
  IC50: 19.8 µM
Cell viability (MTT)
  CC50 at 48 h: 59.2 µM
Cell viability (MTT); [6]
  viability at 48 h, 4 µM: 96 ± 2.7%
  viability at 48 h, 20 µM: 79 ± 4.5%
  viability at 48 h, 100 µM: 18 ± 0.4%
H. pylori; in vivo
  H. pylori colonization: reduce

## S=C=NCc1ccccc1 [BITC, benzyl isothiocyanate]
CD74; 4 µM
  IR (%) inhibition rate of CD74 expression: –19 ± 0.6%
CD74
  IC50: < 20 µM
Cell viability (MTT)
  CC50 at 48 h: 44.3 µM
Cell viability (MTT); [6]
  viability at 48 h, 4 µM: 96 ± 3.4%
  viability at 48 h, 20 µM: 56 ± 7.9%
In vitro
  viability at 48 h, 100 µM: 6.1 ± 1.3%

## CC(C)=CCC/C(C)=C/COc1c2ccoc2cc2oc(=O)ccc12 [Bergamottin]
[2]
  Inhibition of cytochrome P450 (CYP) 3A4: inhibit
CD74; 4 µM
  IR (%) inhibition rate of CD74 expression: 8.6 ± 4.2%
CD74; 20 µM
  IR (%) inhibition rate of CD74 expression: 74 ± 8.2%
CD74; 20 µM, listed as bergamottin
  IR (%) inhibition rate of CD74 expression: 74%
CD74
  Suppression of CD74 expression (in words): significant activity
  IC50: 14.2 µM
Cell viability (MTT); [6]
  CC50 at 48 h: > 100 µM
  viability at 48 h, 4 µM: 93%
  viability at 48 h, 20 µM: 79%
  viability at 48 h, 100 µM: 59 ± 2.1%
MCF-7 cells
  Formation of DNA adducts: reduced
CYP1A1
  Inhibition of CYP1A1: inhibit
Leukemia differentiation
  Leukemia differentiation: induced
NO generation
  NO generation: reduced
Skin tumors
  Skin tumors: reduced

## COc1cc(/C=C/C(=O)CC(=O)/C=C/c2ccc(O)c(OC)c2)ccc1O [Curucumin, curcumin]
CD74; 4 µM
  IR (%) inhibition rate of CD74 expression: 21 ± 8.0%
CD74
  IC50: < 20 µM
Cell viability (MTT); [6]
  viability at 48 h, 4 µM: 89 ± 1.1%
  viability at 48 h, 20 µM: 12 ± 1.9%
  viability at 48 h, 100 µM: 14 ± 6.8%
In vitro
  CC50 at 48 h: 44.3 µM

## O=c1c(-c2ccc(O)cc2)coc2cc(O)cc(O)c12 [Genistein]
CD74; 4 µM
  IR (%) inhibition rate of CD74 expression: 8.6 ± 7.8%
CD74; 20 µM
  IR (%) inhibition rate of CD74 expression: 49 ± 7.2%
CD74; 20 µM, listed as genistein
  IR (%) inhibition rate of CD74 expression: 40–65%
CD74
  IC50: 20.5 µM
NF-κB [3]
  NF-κB activation: decreased
Cell viability (MTT)
  CC50 at 48 h: > 100 µM
Cell viability (MTT); [6]
  viability at 48 h, 4 µM: 100 ± 0.4%
  viability at 48 h, 20 µM: 84 ± 1.5%
  viability at 48 h, 100 µM: 55 ± 4.6%

## O=c1cc(-c2ccc(O)c(O)c2)oc2cc(O)cc(O)c12 [Luteolin]
CD74; 4 µM
  IR (%) inhibition rate of CD74 expression: 4.0 ± 5.1%
CD74; 20 µM
  IR (%) inhibition rate of CD74 expression: 55 ± 1.2%
CD74; 20 µM, listed as luteolin
  IR (%) inhibition rate of CD74 expression: 40–65%
CD74
  IC50: 18.4 µM
NF-κB [4]
  NF-κB inhibition: markedly inhibit
Cell viability (MTT); [6]
  viability at 48 h, 4 µM: 99 ± 2.9%
  viability at 48 h, 20 µM: 81 ± 4.7%
  viability at 48 h, 100 µM: 61 ± 1.5%
In vitro
  CC50 at 48 h: > 100 µM

## COc1ccc(-c2cc(=O)c3c(OC)c(OC)c(OC)c(OC)c3o2)cc1OC [Nobiletin]
CD74; 4 µM
  IR (%) inhibition rate of CD74 expression: 1.8 ± 2.9%
CD74; 20 µM
  IR (%) inhibition rate of CD74 expression: 54 ± 5.0%
CD74; 20 µM, listed as nobiletin
  IR (%) inhibition rate of CD74 expression: 40–65%
CD74
  Suppression of CD74 expression (in words): significant activity
  IC50: 18.8 µM
NF-κB [4]
  NF-κB inhibition: markedly inhibit
Cell viability (MTT)
  CC50 at 48 h: > 100 µM
Cell viability (MTT); [6]
  viability at 48 h, 4 µM: 96 ± 0.3%
  viability at 48 h, 20 µM: 93 ± 0.5%
  viability at 48 h, 100 µM: 58 ± 5%

## S=C=NCCc1ccccc1 [PEITC, phenetyl isothiocyanate]
CD74; 4 µM
  IR (%) inhibition rate of CD74 expression: −17 ± 2.3%
CD74
  IC50: < 20 µM
Cell viability (MTT)
  CC50 at 48 h: 61.3 µM
In vitro
  viability at 48 h, 4 µM: 97 ± 4.8%
  viability at 48 h, 20 µM: 43 ± 1.8%
  viability at 48 h, 100 µM: 37 ± 2.2%

## O=c1c(O)c(-c2ccc(O)c(O)c2)oc2cc(O)cc(O)c12 [Quercetin]
[5]
  N-methyl-N’-nitro-N-nitrosoguanidine-induced inflammation: reduced
CD74; 4 µM
  IR (%) inhibition rate of CD74 expression: 3.7 ± 0.0%
CD74; 20 µM
  IR (%) inhibition rate of CD74 expression: 51 ± 4.7%
CD74; 20 µM, listed as quercetin
  IR (%) inhibition rate of CD74 expression: 40–65%
CD74
  IC50: 19.8 µM
NF-κB [4]
  NF-κB inhibition: markedly inhibit
Cell viability (MTT)
  CC50 at 48 h: > 100 µM
Cell viability (MTT); [6]
  viability at 48 h, 4 µM: 100 ± 3%
  viability at 48 h, 20 µM: 100 ± 3%
  viability at 48 h, 100 µM: 51 ± 0.5%

## COc1ccc(-c2cc(=O)c3c(OC)c(OC)c(OC)c(OC)c3o2)cc1 [Tangeretin]
CD74; 4 µM
  IR (%) inhibition rate of CD74 expression: −3.3 ± 3.3%
CD74; 20 µM
  IR (%) inhibition rate of CD74 expression: 21 ± 3.1%
CD74
  Suppression of CD74 expression (in words): significant activity
  IC50: 39.5 µM
Cell viability (MTT)
  CC50 at 48 h: > 100 µM
Cell viability (MTT); [6]
  viability at 48 h, 4 µM: 98 ± 2.7%
  viability at 48 h, 20 µM: 100 ± 0.5%
  viability at 48 h, 100 µM: 63 ± 3.1%

## C[C@H]1[C@H](C)CC[C@]2(C(=O)O)CC[C@]3(C)C(=CC[C@@H]4[C@@]5(C)CC[C@H](O)C(C)(C)[C@@H]5CC[C@]43C)[C@H]12 [Ursolic acid]
CD74; 4 µM
  IR (%) inhibition rate of CD74 expression: 35 ± 6.1%
CD74
  IC50: < 20 µM
Cell viability (MTT); [6]
  viability at 48 h, 4 µM: 91 ± 1.6%
  viability at 48 h, 20 µM: 38 ± 1.1%
  viability at 48 h, 100 µM: 9.7%
In vitro
  CC50 at 48 h: 35.4 µM

## C/C1=C\CC(C)(C)/C=C/C(=O)/C(C)=C/CC1 [Zerumbone]
CD74; 4 µM
  IR (%) inhibition rate of CD74 expression: 6.6 ± 0.8%
CD74; 20 µM
  IR (%) inhibition rate of CD74 expression: 57 ± 0.2%
CD74; 20 µM, listed as zerumbone
  IR (%) inhibition rate of CD74 expression: 40–65%
CD74
  IC50: 17.7 µM
NF-κB [4]
  NF-κB inhibition: markedly inhibit
Cell viability (MTT); [6]
  CC50 at 48 h: 60.5 µM
  viability at 48 h, 4 µM: 100 ± 0.4%
  viability at 48 h, 20 µM: 77 ± 0.3%
  viability at 48 h, 100 µM: 16 ± 1.1%

## CC(C)=CC(=O)CC(C)c1ccc(C)cc1 (stereo not drawn) [ar-Turmerone]
CD74; 4 µM
  IR (%) inhibition rate of CD74 expression: 22 ± 0.5%
CD74; 20 µM
  IR (%) inhibition rate of CD74 expression: 39 ± 1.8%
CD74
  IC50: 30.8 µM
Cell viability (MTT)
  CC50 at 48 h: > 100 µM
Cell viability (MTT); [6]
  viability at 48 h, 4 µM: 97 ± 4.1%
  viability at 48 h, 20 µM: 100 ± 3.2%
  viability at 48 h, 100 µM: 57 ± 1.3%
